According to PMC6821791, “Phase I Trial of Pyragrel, a Novel Thromboxane Synthetase Inhibitor, to Evaluate the Safety, Tolerability, and Pharmacokinetics in Healthy Volunteers” (Frontiers in Pharmacology, 2019):

How the values were obtained:
[1] = Part I single-ascending-dose plasma pharmacokinetics (HPLC-MS/MS, noncompartmental); format: in vivo, human
Experimental: (§1) Pyragrel administration regimens are as follows: In the single-escalating-dose study (Part I), a total of 52 subjects are enrolled to receive one of three treatments (pyragrel, ozagrel, or placebo, diluted in 500 Ml normal saline) as a 3-h i.v. infusion. Six dose levels of pyragrel (30, 60,120, 180, 240, 300 mg) were intravenously infused to healthy subjects. Of the 12 subjects each at the first three dose groups (30, 60, and 120 mg), 8 received pyragrel, 2 received ozagrel (80 mg), and 2 received placebo. Eight subjects were assigned as 4/2/2 for pyragrel, ozagrel, and placebo at the 180 mg level. Only four subjects were enrolled at the 240- and 300-mg group each; all received pyragrel. […] In the saline-volume-changed study (Part II), the safety and pharmacokinetics of pyragrel were assessed by decreasing the volume of dilution saline. Four subjects received a single 3 h infusion of pyragrel 240 mg diluted in 250 ml saline instead of the 500 ml used in Part I. Blood samples were collected at multiple time points before and after the initiation of the infusion in Part I and Part II; 15 blood samples were predetermined as follows: before drug administration (time 0), 0.5, 1, 2, 3 (4 samples collected during infusion), 3.25, 3.5, 4, 5, 7, 9, 11, 15, 24, and 48 h (10 samples collected post infusion) after the initiation of the infusion. In the multiple-dose study (Part III), 12 subjects received a single 3 h infusion of 180 mg pyragrel (diluted in 250 ml saline) on Day 1 and Day 6 and twice 3 h infusion of 180 mg pyragrel from Day 2 to 5; 14 blood samples were collected on Day 1 and Day 6 before drug administration (0 h), 0.5, 1, 2, 3, 3.25, 3.5, 4, 5, 7, 9, 11, 15, 24 h after the initiation of the infusion; moreover, 5 ml cubital vein blood was collected each time right before pyragrel infusion on Day 2 to Day 5. In the 3×3 crossover study (Part IV), 12 subjects were randomized to receive each of the three dosing groups (60, 120, or 240 mg) of pyragrel (diluted with 250 ml saline, 3 h infusion) per period, with a 7-day washout period between doses. Sixteen blood samples were collected as follows: before drug administration (0 h), 0.17, 0.35, 0.5, 1, 2, 3, 3.25, 3.5, 4, 5, 7, 9, 11, 15, and 24 h after the initiation of the infusion at each period. In the prolonged infusion study (Part V), four subjects received continuous 24 h infusion of pyragrel 360 mg (diluted in 600 ml saline); 19 blood samples were collected as follows: before drug administration (0 h), 0.25, 0.5, 1, 2, 4, 8, 12, 16, 20 (nine samples collected during administration), 24.25, 24.5, 25, 26, 28, 30, 32, 36, and 48 h after the initiation of the infusion (details shown in Figure 1 ). In all five cohorts, 5 ml of cubital vein blood was collected with a sodium heparin anticoagulant tube and centrifuged at 3000 r·min^-1. Each plasma sample was divided into two aliquots and stored at −20°C until further bioanalysis. […] Briefly, 10 µl of the extract drug from […] was injected onto a Zorbax EcLipse XDB C18 column (2.1 mm × 150 mm, 5 μm) (Agilent, USA) using isocratic elution with a mobile phase composed of methanol, water, and formic acid (65:35:0.1, v/v/v). Determination of the analytes was achieved by tandem-mass spectrometry with positive electrospray ionization.
(§2) Pharmacokinetic parameters were calculated using the noncompartmental model (NCA module), WinNonlin 6.1 (Pharsight Corporation, Mountain View, CA, USA). Statistical analysis was performed with SPSS 18. The actual dosing and sampling times were utilized in the analysis. Pharmacokinetic parameters were summarized by dose regimens using descriptive statistics, including n, mean, and the coefficient of variation (CV). For Tmax, only n, min, median, and max were reported.

[2] = Part IV 3×3 crossover study, plasma pharmacokinetics; format: in vivo, human; conditions: 3 h infusion, plasma, n=12, mean ± SD
Experimental: as §1, §2
In Part IV, a multivariate ANOVA model containing subjects, treatments (60, 120, or 240 mg), periods, and gender was used to analyze log-transformed Cmax and AUC. Tmax was analyzed using various related Friedman nonparametric tests.

[3] = system: human umbilical vein endothelial cells (HUVEC); conditions: in vitro; cited from earlier work
[4] = system: focal cerebral ischemia; conditions: cited from earlier work
[5] = Part I, single 3-h i.v. infusion of pyragrel 30 mg, plasma, n=8, mean ± SD
[6] = Part I, single 3-h i.v. infusion of pyragrel 60 mg, plasma, n=8, mean ± SD
[7] = Part I, single 3-h i.v. infusion of pyragrel 120 mg, plasma, n=8, mean ± SD
[8] = Part I, single 3-h i.v. infusion of pyragrel 180 mg, plasma, n=4, mean ± SD
[9] = Part I, single 3-h i.v. infusion of pyragrel 240 mg, plasma, n=4, mean ± SD
[10] = Part I, single 3-h i.v. infusion of pyragrel 300 mg, plasma, n=4, mean ± SD

With `COc1cc(C=CC(=O)[O-])ccc1OCc1nc(C)c(C)nc1C.[Na+]` [Pyragrel, sodium pyragrel] the “Pharmacokinetic process over the dose range” value ([1]; 30–300 mg dose range) was “linear”, the Tmax ([1]; Part I, across all six dose groups (30-300 mg), 3 h infusion) was “about 3 h” and the “Plasma concentration remaining, fraction of Cmax” value ([1]; Part I, at 4 h after initiation of the 3 h infusion) was 1/20. For the same molecule, the AUCINF [1, 5] was 1,051.0 ± 185.8 h*µg·L^-1, the AUClast [1, 5] was 1,047.5 ± 182.7 h*µg·L^-1 and the Cl [1, 5] was 29.26 ± 4.69 L/h. The Tmax [1, 5] was 2.75 ± 0.46 h, the Vz [1, 5] was 96.16 ± 31.87 L and the t1/2 [1, 5] was 2.39 ± 1.03 h. For the same molecule, the AUCINF [1, 6] was 2,009.4 ± 235.97 h*µg·L^-1, the AUClast [1, 6] was 2,003.7 ± 235.9 h*µg·L^-1 and the Cl [1, 6] was 30.23 ± 3.58 L/h. For the same molecule, the Cmax [1, 6] was 711.8 ± 100.2 µg/L, the Tmax [1, 6] was 2.88 ± 0.35 h and the Vz [1, 6] was 203.0 ± 81.47 L. The t1/2 [1, 6] was 4.62 ± 1.69 h, the AUCINF [1, 7] was 4,300.5 ± 807.5 h*µg·L^-1 and the AUClast [1, 7] was 4,287.2 ± 812.7 h*µg·L^-1. For the same molecule, the Cl [1, 7] was 28.76 ± 5.26 L/h, the Cmax [1, 7] was 1,435.6 ± 319.5 µg·L^-1 and the Tmax [1, 7] was 2.88 ± 0.35 h. The Vz [1, 7] was 278.0 ± 162.5 L, the t1/2 [1, 7] was 6.64 ± 3.53 h and the AUCINF [1, 8] was 7,390.5 ± 414.7 h*µg·L^-1. The AUClast [1, 8] was 7,376.5 ± 413.0 h*µg·L^-1, the Cl [1, 8] was 24.41 ± 1.41 L/h and the Cmax [1, 8] was 2,622.5 ± 439.9 µg·L^-1. The Tmax [1, 8] was 3.00 ± 0.00 h, the Vz [1, 8] was 334.4 ± 110.8 L and the t1/2 [1, 8] was 9.64 ± 3.58 h. The AUCINF [1, 9] was 9,224.3 ± 2,716.3 h*µg·L^-1, the AUClast [1, 9] was 9,194.7 ± 2,703.5 h*µg·L^-1 and the Cl [1, 9] was 27.50 ± 6.80 L/h. For the same molecule, the Cmax [1, 9] was 3,144.2 ± 931.2 µg·L^-1, the Tmax [1, 9] was 2.75 ± 0.50 h and the Vz [1, 9] was 573.6 ± 180.3 L. The t1/2 [1, 9] was 14.24 ± 1.66 h, the AUCINF [1, 10] was 9,315.3 ± 1,219.1 h*µg·L^-1 and the AUClast [1, 10] was 9,301.4 ± 1,215.2 h*µg·L^-1. For the same molecule, the Cl [1, 10] was 32.62 ± 4.29 L/h, the Cmax [1, 10] was 3,011.7 ± 303.2 µg·L^-1 and the Tmax [1, 10] was 2.25 ± 0.50 h. For the same molecule, the Vz [1, 10] was 454.6 ± 191.4 L, the t1/2 [1, 10] was 9.88 ± 4.26 h and the AUCINF ([2]; pyragrel 60 mg) was 2,003.8 ± 318.7 h*µg·L^-1. The AUClast ([2]; pyragrel 60 mg) was 1,990.8 ± 317.9 h*µg·L^-1, the Cl ([2]; pyragrel 60 mg) was 30.65 ± 4.91 L/h and the Cmax ([2]; pyragrel 60 mg) was 641.2 ± 107.8 ng/mL. For the same molecule, the Tmax ([2]; pyragrel 60 mg) was 2.75 ± 0.45 h, the Vz ([2]; pyragrel 60 mg) was 184.5 ± 80.37 L and the t1/2 ([2]; pyragrel 60 mg) was 4.28 ± 1.84 h. For the same molecule, the AUCINF ([2]; pyragrel 120 mg) was 4,325.2 ± 541.5 h*µg·L^-1, the AUClast ([2]; pyragrel 120 mg) was 4,317.4 ± 541.1 h*µg·L^-1 and the Cl ([2]; pyragrel 120 mg) was 28.18 ± 3.83 L/h. The Cmax ([2]; pyragrel 120 mg) was 1505.6 ± 178.7 ng/mL, the Tmax ([2]; pyragrel 120 mg) was 2.58 ± 0.51 h and the Vz ([2]; pyragrel 120 mg) was 197.6 ± 77.76 L. For the same molecule, the t1/2 ([2]; pyragrel 120 mg) was 4.82 ± 1.63 h, the AUCINF ([2]; pyragrel 240 mg) was 9,292.8 ± 1,468.0 h*µg·L^-1 and the AUClast ([2]; pyragrel 240 mg) was 9,279.1 ± 1,466.3 h*µg·L^-1. The Cl ([2]; pyragrel 240 mg) was 26.45 ± 4.34 L/h, the Cmax ([2]; pyragrel 240 mg) was 3165.7 ± 426.4 ng/mL and the Tmax ([2]; pyragrel 240 mg) was 2.92 ± 0.29 h. The Vz ([2]; pyragrel 240 mg) was 194.3 ± 72.28 L, the t1/2 ([2]; pyragrel 240 mg) was 5.06 ± 1.58 h and the “Effect against inflammatory induced HUVEC injury” value [3] was “significant protective effects”. For the same molecule, the “Effect against focal cerebral ischemic injury and focal cerebral ischemia-reperfusion” value ([4]; rat models of focal cerebral ischemia, ref Wang and Wu, 2014) was “markedly protective effects” and the Nerve function ([4]; rats with focal cerebral ischemia-reperfusion injury, continuous infusion of pyragrel for 7 days) was “significant improvements”.
